# Values quoted from earlier work as cited in article PMC10716780, “The multistep oxidation of cholesterol to pregnenolone by human cytochrome P450 11A1 is highly processive” (The Journal of Biological Chemistry, 2023).
# Test system: human P450 11A1
# Design: method as in PMID 33271253
# Conditions: surface plasmon resonance ref 46; cited from earlier work
smiles,measurement,value
CC(C)CCC[C@@H](C)[C@H]1CC[C@H]2[C@@H]3CC=C4C[C@@H](O)CC[C@]4(C)[C@H]3CC[C@]12C [Cholesterol],decrease in Kd of P450 11A1-Adx complex in the presence of cholesterol,~3 fold
